Assay results: patent publication US20250034201A1, “PRODRUGS OF GANAXOLONE” (priority 2022, published 2025)
Converted amounts (≈) assume the structure as drawn. Read-outs that look alike come from different tables or passages of the source.

Assays:
[1] = Stability in simulated gastric fluid (SGF); assay type: in vitro ADME; conditions: SGF with pepsin pH 1.2, 37° C.
Experimental: (§1) The stability of exemplary compounds in simulated gastric fluid (SGF) and simulated intestinal fluid (SIF) was tested according to the following protocol.

[2] = Stability in simulated intestinal fluid (SIF); assay type: in vitro ADME; conditions: SIF with pancreatin pH 6.8, 37° C.
Experimental: as §1

[3] = Dog liver microsomal stability; assay type: in vitro ADME; conditions: for microsomal CLint / half-life: dog liver microsomes 0.5 mg/mL, compound 0.5 μM; for microsomal CLint: read-out: Dog Liver Microsomal Stability CLint (uL/min/mg liver); for half-life: read-out: Dog Liver Microsomal Stability t1/2; for Dog Liver Microsomal Stability no NADPH, % remain 1 h: dog liver microsomes
Experimental: (§2) For several compounds only human liver microsomal stability was tested. […] The microsomal assays were carried out with and without the addition of NADPH at a final concentration of 1 mM. For negative control samples, NADPH reagent was not added. […] Note that compounds undergo only Phase I metabolism in liver microsomes.
(§3) CLint=the intrinsic hepatic clearance (uL/min/mg), where CLint is equal to 0.693/(t1/2×Cmp)
Certain compounds were also tested in mice and dog liver microsome assays according to the protocol outlined above. […].

[4] = Rat liver microsomal stability; assay type: in vitro ADME; conditions: for half-life / microsomal CLint: rat liver microsomes 0.5 mg/mL, with NADPH; for half-life / microsomal CLint / Rat Liver Microsomal Stability no NADPH, % remain 1 h: compound 0.5 μM; for half-life: 37° C., read-out: Rat Liver Microsomal Stability t1/2; for microsomal CLint: read-out: Rat Liver Microsomal Stability CLint (uL/min/mg liver)
Experimental: as §2, §3

in vitro [5] = conditions: for Human plasma t90 / Rat plasma t90: 2 μg/mL, 37° C.
Experimental: The plasma stability of exemplary compounds was tested using rat, mice, dog, and human plasma, according to the following protocol. For each test compound, samples at a final concentration of 2 μg/mL were prepared in blank plasma of selected species. All samples were incubated at 37° C. on a 150-RPM orbital shaker, and an aliquot was removed at pre-determined time points (0, 15, 30, 60, and 120 minutes). Samples were precipitated with three volumes of acetonitrile containing propranolol as internal standard, and centrifuged for 10 min at 2000 g before LC/MS/MS analysis of the supernatant solutions.

in vitro [6] = assay type: in vitro ADME, human; conditions: compound 0.5 μM; for half-life / microsomal CLint: human liver microsomes 0.5 mg/mL, with NADPH; for half-life: 37° C., read-out: Human Liver Microsomal Stability t1/2; for microsomal CLint: read-out: Human Liver Microsomal Stability CLint (uL/min/mg liver) (converted); for Human Liver Microsomal Stability no NADPH, % remain 1 h: human liver microsomes
Experimental: as §2

[7] = Measured solubility in buffer, LC-MS/MS; assay type: physicochemical; conditions: aqueous buffer, thermodynamic from solid
Experimental: […] The mixture was vortexed and a magnetic stirring bar was subsequently added to the vial. The vial was placed on a magnetic stirrer with constant stirring for 16-24 hours at room temperature. The pH of the top layer solution was measured. Subsequently, 200 μL of the top layer solution was placed in a 1.5 mL microcentrifuge tube and centrifuged at 18,000 g for 10 min at room temperature. A 10 μL aliquot of supernatant was added to 990 μL of methanol:water (1/:1, v/v) and vortexed. Then, one volume of acetonitrile containing internal standard was added to one volume of the above 100-fold diluted solution and the resulting solution was vortexed and placed in 96-well plate for LC-MS/MS analysis. […] LC-MS-MS analysis was performed utilizing multiple reaction monitoring for detection of characteristic ions for each test compound, additional related analytes and internal standard.

Dog plasma stability = assay type: in vitro ADME; conditions: dog plasma; for Dog plasma t90 / half-life: 2 μg/mL, 37° C.; for half-life: read-out: Dog plasma Half life (t1/2)
[8] = Pharmacokinetic study with Compound 218 (IV 5 mg/kg, PO 25 mg/kg); assay type: in vivo; conditions: dog, plasma, fasted male beagle dogs; for AUC(0-t): read-out: Compound 218 PK AUClast; for MRT inf: read-out: Compound 218 PK MRTInf; for half-life: read-out: Compound 218 PK t1/2 (converted); for Vd: male, beagle, 5 mg/kg
Experimental: […]; n=3) and oral (PO) administration (25 mg/kg; n=3) in fasted male beagle dogs.

[9] = pH 7.4, 50 mM phosphate buffer, 16-24 hours, room temperature, read-out: Solubility pH 7.4
[10] = buffer, pH 2.0, room temperature, read-out: Solubility pH 2.0
[11] = analyte Compound 218, IV 5 mg/kg Compound 218, mean
[12] = analyte Compound 218, oral 25 mg/kg Compound 218, mean

## CC(=O)[C@H]1CC[C@H]2[C@@H]3CC[C@H]4C[C@](C)(O)CC[C@]4(C)[C@H]3CC[C@]12C [ganaxolone, Ganaxolone]
[1]
  SGF (% remain, 60 min): 95.6%
[2]
  SIF (% remain, 60 min): 94.6%
[3]
  microsomal CLint: 27.8 µL/min/mg
  half-life: 0.83 h
  Dog Liver Microsomal Stability no NADPH, % remain 1 h: 43.6%
[4]
  half-life: 0.2 h
  microsomal CLint: 116 µL/min/mg
[4]; rat liver microsomes
  Rat Liver Microsomal Stability no NADPH, % remain 1 h: 98.0%
In vitro [5]
  Human plasma t90: 211.0 min
  Rat plasma t90: 94.2 min
In vitro [5]; human, plasma
  half-life: 23.4 h
In vitro [5]; rat, plasma
  half-life: 10.4 h
In vitro [6]
  half-life: 0.21 h
  microsomal CLint: 110 µL/min/mg
  Human Liver Microsomal Stability no NADPH, % remain 1 h: 99.0%
[7]; [9]
  solubility: 4 µg/mL (≈ 12 µM)
[7]; [10]
  solubility: 2 µg/mL (≈ 6.01 µM)
Dog plasma stability
  Dog plasma t90: 564 min
  half-life: 62.4 h

## CC(=O)[C@H]1CC[C@H]2[C@@H]3CC[C@H]4C[C@](C)(OC(=O)COC(=O)C(C)(C)N)CC[C@]4(C)[C@H]3CC[C@]12C [Compound 218]
[1]
  SGF (% remain, 60 min): 97%
[1]; simulated gi fluid, 2 μg/mL, read-out: SGF t1/2
  half-life: 35 h
[2]
  SIF (% remain, 60 min): 95%
[2]; simulated gi fluid, 2 μg/mL, read-out: SIF t1/2
  half-life: 22.7 h
[3]
  microsomal CLint: 69 µL/min/mg
  half-life: 0.335 h
  Dog Liver Microsomal Stability no NADPH, % remain 1 h: 44.4%
[4]; rat liver microsomes
  Comments: production of GNX (ganaxolone) in rat liver microsomes: In rat no GNX produced;
  Rat Liver Microsomal Stability no NADPH, % remain 1 h: 83%
[4]
  half-life: 0.94 h
  microsomal CLint: 26 µL/min/mg
In vitro [5]
  Human plasma t90: 8.6 min
  Rat plasma t90: 8.5 min
In vitro [5]; human, plasma
  Observations: stability / GNX production in human plasma: No GNX produced
  half-life: 0.948 h
In vitro [5]; rat, plasma
  Observations: stability / GNX production in rat plasma: GNX produced in rat
  half-life: 0.938 h
In vitro [6]
  half-life: 0.24 h
  microsomal CLint: 95.3 µL/min/mg
  Human Liver Microsomal Stability no NADPH, % remain 1 h: 10.0%
[7]; [9]
  solubility: 152 µg/mL (≈ 320 µM)
[7]; [10]
  solubility: 16900 µg/mL (≈ 35500 µM)
[8]; analyte Compound 218, IV 5 mg/kg Compound 218, mean, read-out: Compound 218 PK AUCinf
  AUC(0-inf): 2200 ng·h/mL
[8]; [11]
  AUC(0-t): 2130 ng·h/mL
  MRT inf: 5.03 h
  half-life: 17.7 h
[8]; analyte Compound 218, IV 5 mg/kg Compound 218, mean, read-out: Compound 218 PK C0
  C0: 2750 ng/mL
[8]; analyte Compound 218, IV 5 mg/kg Compound 218, mean, read-out: Compound 218 PK CL
  clearance: 37.9 mL/min/kg
[8]; analyte Compound 218, oral 25 mg/kg Compound 218, mean, read-out: Compound 218 PK AUCInf
  AUC(0-inf): 415 ng·h/mL
[8]; [12]
  AUC(0-t): 359 ng·h/mL
  MRT inf: 6.38 h
  half-life: 6.13 h
[8]; analyte Compound 218, oral 25 mg/kg Compound 218, mean, read-out: Compound 218 PK Cmax
  Cmax: 89.8 ng/mL
[8]; analyte Compound 218, oral 25 mg/kg Compound 218, mean, read-out: Compound 218 PK Tmax
  Tmax: 1.17 h
[8]; analyte Compound 218, oral 25 mg/kg vs IV 5 mg/kg Compound 218, mean, read-out: Compound 218 PK F (%)
  bioavailability: 3.76%
[8]; intravenous, Compound 218 administered, read-out: volume of distribution (Vd) (dose/Co)
  Vd: 1.82 L/kg
[8]; iv, analyte Compound 218, IV 5 mg/kg Compound 218, mean, read-out: Compound 218 PK Vss
  Vd: 11.4 L/kg
[8]; iv, analyte Compound 218, IV 5 mg/kg Compound 218, mean, read-out: Compound 218 PK Vz
  Vd: 57.5 L/kg
Dog plasma stability
  Observations: stability / GNX production in dog plasma: No GNX produced
  Dog plasma t90: 783 min
  half-life: 86.6 h
